Reference: patent US20240158446A1, “CYCLIC COMPOUND HAVING SELECTIVE INHIBITORY ACTION ON KRAS OVER HRAS AND NRAS” (CHUGAI SEIYAKU KABUSHIKI KAISHA, priority 2021, published 2024)
Like-named read-outs stand apart in the source and are kept apart here. *1 amine or outer side, *2 acyl side, *3 side chain or, on linkers, in order; H or OH if unused. Where a SMILES comes first, the peptide text is derived from it. Bridges are numbered along the chain shown (N, C = ends). [ ]: non-standard residue; d: D form. The star is where a group is joined. hPhe(3,5-F2-4-CF3) = N[C@@H](CCc1cc(F)c(C(F)(F)F)c(F)c1)C(=O)O; hPhe(3-Cl-4-CF3) = N[C@@H](CCc1ccc(C(F)(F)F)c(Cl)c1)C(=O)O; NPrPhe(4-CF3) = CCCN[C@@H](Cc1ccc(C(F)(F)F)cc1)C(=O)O; X30 = C=CCCN([C@@H](Cc1ccc(C)cc1)C(=O)[*:2])[*:1]; X9 = CCCN([C@@H](Cc1ccc(F)cc1)C(=O)[*:2])[*:1]; Pro(4-spirocPr) = O=C(O)[C@@H]1CC2(CC2)CN1; NMeGly(cPent) = CN[C@H](C(=O)O)C1CCCC1; Pro(4,4-F2) = O=C(O)[C@@H]1CC(F)(F)CN1; NMeF = CN[C@@H](Cc1ccccc1)C(=O)O; NMeD = CN[C@@H](CC(=O)O)C(=O)O; NMeL = CN[C@@H](CC(C)C)C(=O)O; Morpholide = C1CN(*)CCO1; NMeA = CN[C@@H](C)C(=O)O; Ac5c = NC1(C(=O)O)CCCC1; Aze = O=C(O)[C@@H]1CCN1; Sar = CNCC(=O)O

What was measured:
[1] = target: GDP-bound KRAS wild-type protein (Homo sapiens, UniProt P01116); assay: Binding to KRAS by surface plasmon resonance (SPR), Single Cycle Kinetics; conditions: GDP-bound KRAS wild-type protein, read-out: KRAS KD
GDP-bound KRAS wild-type protein, sequence (P01116 whole entry): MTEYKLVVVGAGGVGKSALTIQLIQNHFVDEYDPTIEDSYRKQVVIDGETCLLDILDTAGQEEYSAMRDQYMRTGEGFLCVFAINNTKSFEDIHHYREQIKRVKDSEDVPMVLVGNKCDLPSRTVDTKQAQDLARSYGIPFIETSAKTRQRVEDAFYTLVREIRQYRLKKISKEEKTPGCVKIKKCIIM

[2] = target: GDP-bound HRAS wild-type protein (Homo sapiens, UniProt P01112); assay: Binding to HRAS by surface plasmon resonance (SPR), Single Cycle Kinetics; conditions: for HRAS/KRAS (ratio of KD value for HRAS to KD value for KRAS) / HRAS/KRAS (ratio of KD value with respect to HRAS to KD value with respect to KRAS): SPR, GDP-bound HRAS wild-type protein vs GDP-bound KRAS wild-type protein; for HRAS/KRAS (ratio of KD value with respect to GDP-bound HRAS wild-type protein to KD value with respect to KRAS): SPR KD ratio HRAS/KRAS, class symbols
GDP-bound HRAS wild-type protein, sequence (P01112 whole entry): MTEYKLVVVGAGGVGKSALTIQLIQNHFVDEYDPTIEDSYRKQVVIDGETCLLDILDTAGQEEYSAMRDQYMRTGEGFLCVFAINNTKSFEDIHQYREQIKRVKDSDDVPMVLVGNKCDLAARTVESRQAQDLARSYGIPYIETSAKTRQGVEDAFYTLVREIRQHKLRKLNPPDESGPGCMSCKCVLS

[3] = target: GDP-bound NRAS wild-type protein (Homo sapiens, UniProt P01111); assay: Binding to NRAS by surface plasmon resonance (SPR), Single Cycle Kinetics; conditions: for NRAS/KRAS (ratio of KD value for NRAS to KD value for KRAS) / NRAS/KRAS (ratio of KD value with respect to NRAS to KD value with respect to KRAS): SPR, GDP-bound NRAS wild-type protein vs GDP-bound KRAS wild-type protein; for NRAS/KRAS (ratio of KD value with respect to GDP-bound NRAS wild-type protein to KD value with respect to KRAS): SPR KD ratio NRAS/KRAS, class symbols
GDP-bound NRAS wild-type protein, sequence (P01111 whole entry): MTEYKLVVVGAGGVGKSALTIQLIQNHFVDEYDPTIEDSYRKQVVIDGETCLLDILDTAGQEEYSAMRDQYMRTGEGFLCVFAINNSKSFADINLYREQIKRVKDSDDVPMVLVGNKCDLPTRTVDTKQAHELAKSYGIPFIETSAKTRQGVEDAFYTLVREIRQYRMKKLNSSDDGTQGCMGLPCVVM

[4] = SPR Single Cycle Kinetics, 1:1 binding model

Row | Structure (SMILES) | Kd [1, 4] [nM] | HRAS/KRAS (ratio of KD value for HRAS to KD value for KRAS) [2] | NRAS/KRAS (ratio of KD value for NRAS to KD value for KRAS) [3] | HRAS/KRAS (ratio of KD value with respect to HRAS to KD value with respect to KRAS) [2] | NRAS/KRAS (ratio of KD value with respect to NRAS to KD value with respect to KRAS) [3] | Kd ([1]; SPR, Single Cycle Kinetics) [nM] | HRAS/KRAS (ratio of KD value with respect to GDP-bound HRAS wild-type protein to KD value with respect to KRAS) [2] | NRAS/KRAS (ratio of KD value with respect to GDP-bound NRAS wild-type protein to KD value with respect to KRAS) [3]
1 | CCCN1C(=O)[C@@H]2CCN2C(=O)[C@H](C)N(C)C(=O)[C@H]([C@@H](C)CC)NC(=O)[C@H](CC(C)C)N(C)C(=O)C[C@@H](C(=O)N2CCOCC2)N(C)C(=O)[C@H](C2CCCC2)N(C)C(=O)C2(CCCC2)NC(=O)[C@@H]2CCCN2C(=O)[C@H](CCc2ccc(C(F)(F)F)c(Cl)c2)NC(=O)CN(C)C(=O)[C@@H]1Cc1ccc(F)cc1 [PP0219] ([NMeL]I[NMeA][Aze][X9][Sar][hPhe(3-Cl-4-CF3)]P[Ac5c][NMeGly(cPent)][NMeD]-Morpholide; lactam N-11) | 0.13 | B (a compound having 3 or more and less than 10 is denoted as B) | C (A compound having a KD ratio of 0.1 or more and less than 3 is denoted as C) |  |  |  |  | 
2 | CCCN1C(=O)CN(C)C(=O)CNC(=O)[C@H]([C@@H](C)CC)NC(=O)[C@H](CC(C)C)N(C)C(=O)C[C@@H](C(=O)N(C)C)NC(=O)[C@H](C2CCCC2)N(C)C(=O)C2(CCCC2)NC(=O)[C@@H]2CC(F)(F)CN2C(=O)[C@H](CCc2ccc(C(F)(F)F)c(Cl)c2)NC(=O)CN(C)C(=O)[C@@H]1Cc1ccc(C(F)(F)F)cc1 [PP0363] ([NMeL]IG[Sar][NPrPhe(4-CF3)][Sar][hPhe(3-Cl-4-CF3)][Pro(4,4-F2)][Ac5c][NMeGly(cPent)]D-NMe2; lactam N-11) | 1 | C (A compound having a KD ratio of 0.1 or more and less than 3 is denoted as C) | B (a compound having 3 or more and less than 10 is denoted as B) |  |  |  |  | 
3 | CCCN1C(=O)CN(C)C(=O)CN(C)C(=O)[C@H]([C@@H](C)CC)NC(=O)[C@H](CC(C)C)N(C)C(=O)C[C@@H](C(=O)N2CCOCC2)N(C)C(=O)[C@H](C2CCCC2)N(C)C(=O)C2(CCCC2)NC(=O)[C@@H]2CC3(CC3)CN2C(=O)[C@H](CCc2ccc(C(F)(F)F)c(Cl)c2)NC(=O)CN(C)C(=O)[C@@H]1Cc1ccc(C(F)(F)F)cc1 [PP0261] ([NMeL]I[Sar][Sar][NPrPhe(4-CF3)][Sar][hPhe(3-Cl-4-CF3)][Pro(4-spirocPr)][Ac5c][NMeGly(cPent)][NMeD]-Morpholide; lactam N-11) | 0.14 | C (A compound having a KD ratio of 0.1 or more and less than 3 is denoted as C) | B (a compound having 3 or more and less than 10 is denoted as B) |  |  |  |  | 
4 | C=CCCN1C(=O)CN(C)C(=O)CN(C)C(=O)[C@H]([C@@H](C)CC)NC(=O)[C@H](CC(C)C)N(C)C(=O)C[C@@H](C(=O)N2CCOCC2)N(C)C(=O)[C@H](C2CCCC2)N(C)C(=O)C2(CCCC2)NC(=O)[C@@H]2CCCN2C(=O)[C@H](CCc2ccc(C(F)(F)F)c(Cl)c2)NC(=O)CN(C)C(=O)[C@@H]1Cc1ccc(C)cc1 [PP0101] ([NMeL]I[Sar][Sar][X30][Sar][hPhe(3-Cl-4-CF3)]P[Ac5c][NMeGly(cPent)][NMeD]-Morpholide; lactam N-11) | 0.16 | C (A compound having a KD ratio of 0.1 or more and less than 3 is denoted as C) | B (a compound having 3 or more and less than 10 is denoted as B) |  |  |  |  | 
5 | CCCN1C(=O)CN(C)C(=O)[C@@H]2CCN2C(=O)[C@H]([C@@H](C)CC)NC(=O)[C@H](CC(C)C)N(C)C(=O)C[C@@H](C(=O)N2CCOCC2)N(C)C(=O)[C@H](C2CCCC2)N(C)C(=O)C2(CCCC2)NC(=O)[C@@H]2CCCN2C(=O)[C@H](CCc2cc(F)c(C(F)(F)F)c(F)c2)NC(=O)CN(C)C(=O)[C@@H]1Cc1ccc(C(F)(F)F)cc1 [PP0770] ([NMeL]I[Aze][Sar][NPrPhe(4-CF3)][Sar][hPhe(3,5-F2-4-CF3)]P[Ac5c][NMeGly(cPent)][NMeD]-Morpholide; lactam N-11) | 0.84 |  |  | B (a compound having 3 or more and less than 10 is denoted as B) | B (a compound having 3 or more and less than 10 is denoted as B) |  |  | 
6 | CC[C@H](C)[C@@H]1NC(=O)[C@H](CC(C)C)N(C)C(=O)C[C@@H](C(=O)N(C)C)N(C)C(=O)[C@H](C2CCCC2)N(C)C(=O)C2(CCCC2)NC(=O)[C@@H]2C[C@H](C)CN2C(=O)[C@H](CCc2cc(F)c(C(F)(F)F)c(F)c2)NC(=O)CN(C)C(=O)[C@H](Cc2ccc(C(F)(F)F)cc2)N2CC/C=C\C[C@@H](C2=O)N(C)C(=O)CN(C)C1=O [PP2268] |  | A (a compound having 10 or more and less than 20 is denoted as A) | A (a compound having 10 or more and less than 20 is denoted as A) |  |  | 0.12 |  | 
7 | CCO[C@@H]1C[C@H]2C(=O)NC3(CC(C)(C)C3)C(=O)N(C)[C@@H](C(CC)CC)C(=O)N(C)[C@H](C(=O)N3CCCC3)CC(=O)N(C)[C@@H](COC)C(=O)N[C@@H]([C@@H](C)CC)C(=O)N(C)CC(=O)N(C)[C@H]3C/C=C\CCN(C3=O)[C@@H](Cc3ccc(C(F)(F)F)cc3)C(=O)N(C)CC(=O)N[C@@H](CCc3ccc(C(F)(F)F)c(Cl)c3)C(=O)N2C1 [PP2128] |  | A (a compound having 10 or more and less than 20 is denoted as A) | AA (a compound having 20 or more is denoted as AA) |  |  | 0.4 |  | 
8 | CC[C@H](C)[C@@H]1NC(=O)[C@H](CC(C)C)N(C)C(=O)C[C@@H](C(=O)N2CCOCC2)N(C)C(=O)[C@H](C2CCCC2)N(C)C(=O)C2(CCCC2)NC(=O)[C@@H]2CCCN2C(=O)[C@H](CCc2ccc(C(F)(F)F)c(Cl)c2)NC(=O)CN(C)C(=O)[C@H](Cc2ccccc2)N(C)C(=O)CN(C)C(=O)CN(C)C1=O [PP0039] ([NMeL]I[Sar][Sar][NMeF][Sar][hPhe(3-Cl-4-CF3)]P[Ac5c][NMeGly(cPent)][NMeD]-Morpholide; lactam N-11) | 0.17 | C (A compound having a KD ratio of 0.1 or more and less than 3 is denoted as C) | C (A compound having a KD ratio of 0.1 or more and less than 3 is denoted as C) |  |  |  |  | 
9 | CCO[C@@H]1C[C@H]2C(=O)NC3(CCCC3)C(=O)N(C)[C@@H](C3CCCC3)C(=O)N(C)[C@H](C(=O)N(C)C)CC(=O)N(C)[C@@H](CC(C)C)C(=O)N[C@@H]([C@@H](C)CC)C(=O)N(C)CC(=O)N(C)[C@H]3C[C@@H](C)CCN(C3=O)[C@@H](Cc3ccc(C(F)(F)F)cc3)C(=O)N(C)CC(=O)N[C@@H](CCc3cc(F)c(C(F)(F)F)c(F)c3)C(=O)N2C1 [PP1017] |  | B (a compound having 3 or more and less than 10 is denoted as B) | C (A compound having a KD ratio of 0.1 or more and less than 3 is denoted as C) |  |  | 0.048 |  | 
10 | CCCOC[C@H]1C(=O)N[C@@H]([C@@H](C)CC)C(=O)N(C2CC2)CC(=O)N(C)[C@H]2C/C=C\CCN(C2=O)[C@@H](Cc2ccc(C)cc2)C(=O)N(C)CC(=O)N[C@@H](CCc2ccc(C(F)(F)F)c(OC)c2)C(=O)N2C[C@H](OCC)C[C@H]2C(=O)N(C)C2(CCC2)C(=O)N(C)[C@@H](C(CC)CC)C(=O)N(C)[C@H](C(=O)N(C)C)CC(=O)N1C [PP2327] |  | A (a compound having 10 or more and less than 20 is denoted as A) | A (a compound having 10 or more and less than 20 is denoted as A) |  |  | 0.5 |  | 
11 | CCO[C@@H]1C[C@H]2C(=O)NC3(CC(C)(C)C3)C(=O)N(C)[C@@H](C(CC)CC)C(=O)N(C)[C@H](C(=O)N(C)C)CC(=O)N(C)[C@@H](C(C)C)C(=O)N[C@@H]([C@@H](C)CC)C(=O)N(C)CC(=O)N(C)[C@H]3C/C=C\CCN(C3=O)[C@@H](Cc3ccc(C(F)(F)F)cc3)C(=O)N(C)CC(=O)N[C@@H](CCc3ccc(C(F)(F)F)c(OC)c3)C(=O)N2C1 [PP2165] |  | A (a compound having 10 or more and less than 20 is denoted as A) | A (a compound having 10 or more and less than 20 is denoted as A) |  |  | 0.51 |  | 
12 | CCC[C@H]1C(=O)N[C@@H]([C@@H](C)CC)C(=O)N(C)CC(=O)N(C)[C@H]2C/C=C\CCN(C2=O)[C@@H](Cc2ccc(C(F)(F)F)cc2)C(=O)N(C)CC(=O)N[C@@H](CCc2ccc3c(C)cn(C)c3c2)C(=O)N2C[C@H](OCC)C[C@H]2C(=O)NC2(CC(C)(C)C2)C(=O)N(C)[C@@H](C2CCCC2)C(=O)N(C)[C@H](C(=O)N(C)C)CC(=O)N1C [PP2897] | 0.56 |  |  |  |  |  | B (a compound having 3 or more and less than 10 is denoted as B) | A (a compound having 10 or more and less than 20 is denoted as A)
13 | CC[C@H](C)[C@@H]1NC(=O)[C@H](CC(C)C)N(C)C(=O)C[C@@H](C(=O)N2CCOCC2)N(C)C(=O)[C@H](C2CCCC2)N(C)C(=O)C2(CCC2)NC(=O)[C@]2(C)CCCN2C(=O)[C@H](CCc2cc(F)c(C(F)(F)F)c(F)c2)NC(=O)CN(C)C(=O)[C@H](Cc2ccc(C(F)(F)F)cc2)N2CCCC[C@@H](C2=O)N(C)C(=O)CN(C)C1=O [PP0808] | 0.027 |  |  | B (a compound having 3 or more and less than 10 is denoted as B) | B (a compound having 3 or more and less than 10 is denoted as B) |  |  | 
14 | CCO[C@@H]1C[C@H]2C(=O)NC3(CC(C)(C)C3)C(=O)N(C)[C@@H](C3CCCC3)C(=O)N(C)[C@H](C(=O)N3CCCCC3)CC(=O)N(C)[C@H]3CC/C=C/c4ccc(cc4)C[C@@H](C(=O)N(C)CC(=O)N[C@@H](CCc4ccc(Cl)c(Cl)c4)C(=O)N2C1)N1CC/C=C\C[C@@H](C1=O)N(C)C(=O)CN(C)C(=O)[C@H]([C@@H](C)CC)NC3=O [PP2597] | 0.51 |  |  |  |  |  | A (a compound having 10 or more and less than 20 is denoted as A) | A (a compound having 10 or more and less than 20 is denoted as A)
